In US9045398B2, “Sulfonium salt and photo-acid generator” (SAN-APRO LTD., priority 2013, dated 2015):

Experiments:
[1] = Degree of solubility in propylene glycol monomethyl ether acetate (PGMEA); type: physicochemical; details: for Degree of solubility (%): in propylene glycol monomethyl ether acetate (PGMEA); for Degree of solubility in PGMEA compared with Comparative Examples 1 to 3 (identical anion, different cation): versus Comparative Examples 1 to 3
Procedure: The degrees of solubility in propylene glycol monomethyl ether acetate (PGMEA) of the photo-acid generators (A-1) to (A-10) of the present invention and the photo-acid generators (H-1) to (H-3) of comparative examples were measured.
The degree of solubility determined by the above-mentioned operations was judged according to the following criteria. The results are shown in Table 2. • S: 30% or more • A: 5% or more but less than 30% • B: 1% or more but less than 5% • C: less than 1%

[2] = Evaluation of light sensitivity: acid generation ratio after ArF excimer lamp exposure (Rhodamine B base colour reagent); type: physicochemical; details: 2.5 mM in acetonitrile with 2.5 mM Rhodamine B base; ArF excimer lamp 193 nm, 1.8 mW/cm^2, integrated amount of light 100 mJ/cm^2
Procedure: The photo-acid generators (A-1) to (A-10) of the present invention and the photo-acid generators (H-1) to (H-3) of comparative examples were each diluted with acetonitrile so that their molar concentrations would be 2.5 mM, and then Rhodamine B base (a color reagent for an acid, produced by Sigma-Aldrich) was added to the respective solutions so that the molar concentration would be 2.5 mM, yielding sample solutions.
A sample solution obtained above was put into a quartz cell having an optical path length of 1 cm and then was exposed to light under prescribed conditions using an ArF excimer lamp (center wavelength=193 nm). The absorbance near 556 nm of the respective sample solutions after exposure to light was measured with a spectrophotometer (UV-vis) because the photo-acid generator in a sample solution is decomposed upon exposure to light to generate an acid, which then reacts with Rhodamine B base and, as a result, the absorbance near 556 nm increases. Based on the absorbance at 556 nm, the molar concentration of the acid in the sample solution after exposure to light was determined using a calibration curve (standard substance: p-toluenesulfonic acid). From the acid concentration determined and the initial concentration of the photo-acid generator, the acid generation ratio was determined by the following calculation.
The acid generation ratio determined by the above-mentioned operations was judged according to the following criteria. The results are shown in Table 2. • A: 55% or more • C: less than 55% • (Light Exposure Conditions) • Photolithography machine: ArF excimer lamp (manufactured by USHIO INC.) • Illuminance (measured with a 193 nm head illuminometer): 1.8 mW/cm^2 • Integrated amount of light (measured with a 193 nm head illuminometer): 100 mJ/cm^2 <Evaluation of Solubility> (Measurement of Degree of Solubility)

Fc1cccc([S+](c2ccccc2)c2ccccc2)c1 [A-4]
Degree of solubility (%) [1]: S (30% or more) | Acid generation ratio (%) [2]: A (55% or more)

FC(F)(F)c1cccc([S+](c2ccccc2)c2ccccc2)c1 [A-8]
Degree of solubility (%) [1]: S (30% or more) | Acid generation ratio (%) [2]: A (55% or more)

Fc1cccc([S+](c2ccccc2)c2ccccc2)c1 [A-3]
Degree of solubility (%) [1]: S (30% or more) | Acid generation ratio (%) [2]: A (55% or more)

Cc1ccc([S+](c2ccccc2)c2ccccc2)cc1.O=S(=O)([O-])C(F)(F)F [H-2, (4-Methylphenyl)diphenylsulfonium trifluoromethanesulfonate, reference compound]
Degree of solubility (%) [1]: B (1% or more but less than 5%) | Acid generation ratio (%) [2]: C (less than 55%)

O=S(=O)([O-])C(F)(F)F.c1ccc([S+](c2ccccc2)c2ccccc2)cc1 [H-1, Triphenylsulfonium trifluoromethanesulfonate, reference compound]
Degree of solubility (%) [1]: C (less than 1%) | Acid generation ratio (%) [2]: A (55% or more)

FC(F)(F)c1cccc([S+](c2ccccc2)c2ccccc2)c1 [A-6, diphenyl-3-trifluoromethylphenylsulfonium trifluoromethane sulfonate]
Degree of solubility in PGMEA compared with Comparative Examples 1 to 3 (identical anion, different cation) [1]: higher | Degree of solubility (%) [1]: A (5% or more but less than 30%) | Acid generation ratio (%) [2]: A (55% or more)

FC(F)(F)c1cccc([S+](c2ccccc2)c2ccccc2)c1 [A-7]
Degree of solubility (%) [1]: S (30% or more) | Acid generation ratio (%) [2]: A (55% or more)

FC(F)(F)c1cccc([S+](c2ccccc2)c2ccccc2)c1 [A-9]
Degree of solubility (%) [1]: S (30% or more) | Acid generation ratio (%) [2]: A (55% or more)

Fc1cccc([S+](c2ccccc2)c2ccccc2)c1 [A-1]
Degree of solubility in PGMEA compared with Comparative Examples 1 to 3 (identical anion, different cation) [1]: higher | Degree of solubility (%) [1]: A (5% or more but less than 30%) | Acid generation ratio (%) [2]: A (55% or more)

Fc1cccc([S+](c2ccccc2)c2ccccc2)c1 [A-2]
Degree of solubility (%) [1]: S (30% or more) | Acid generation ratio (%) [2]: A (55% or more)

Fc1ccc([S+](c2ccccc2)c2ccccc2)cc1.O=S(=O)([O-])C(F)(F)F [H-3, (4-Fluorophenyl)diphenylsulfonium trifluoromethanesulfonate, reference compound]
Degree of solubility (%) [1]: B (1% or more but less than 5%) | Acid generation ratio (%) [2]: C (less than 55%)
